US20250270180A1, “MEK INHIBITORS AND THERAPEUTIC USES THEREOF” (Immuneering Corporation, priority 2020, published 2025)
Values after ≈ are worked out from the molar mass of the structure shown. Where two headings read alike, the source gives them in different places.

How the values were obtained:
[1] = Microsome stability, human; assay type: in vitro ADME; conditions: microsomes, 2 μM
[2] = Microsome stability, beagle dog; assay type: in vitro ADME; conditions: microsomes, 2 μM
Plasma stability, human = assay type: in vitro ADME; conditions: 2 μM
[3] = Plasma stability, beagle dog; assay type: in vitro ADME; conditions: 2 μM
[4] = Plasma stability, CD-1 mouse; assay type: in vitro ADME; conditions: 2 μM
CYP450 1A2 = target: T1, CYP450 1A2 (Homo sapiens, UniProt P05177); assay: CYP450 panel, 1A2; assay type: in vitro ADME; conditions: 10 μM; substrate phenacetin
T1 sequence (P05177 1-516): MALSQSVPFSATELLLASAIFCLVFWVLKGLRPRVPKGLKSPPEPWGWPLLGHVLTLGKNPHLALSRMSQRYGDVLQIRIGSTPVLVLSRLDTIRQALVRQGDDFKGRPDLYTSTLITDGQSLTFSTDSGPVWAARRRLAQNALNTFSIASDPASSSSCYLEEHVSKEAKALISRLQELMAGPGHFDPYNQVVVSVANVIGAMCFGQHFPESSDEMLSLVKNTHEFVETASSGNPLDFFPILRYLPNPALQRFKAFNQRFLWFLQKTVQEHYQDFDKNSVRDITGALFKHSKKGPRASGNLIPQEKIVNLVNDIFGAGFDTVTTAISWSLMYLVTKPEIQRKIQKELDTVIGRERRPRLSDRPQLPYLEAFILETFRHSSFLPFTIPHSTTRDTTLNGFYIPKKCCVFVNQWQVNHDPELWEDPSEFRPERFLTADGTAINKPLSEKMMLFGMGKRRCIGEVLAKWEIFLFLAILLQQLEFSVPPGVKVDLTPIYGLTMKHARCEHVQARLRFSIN

[5] = Kinetic solubility (PBS pH 7.4; 4 hr); assay type: physicochemical
Procedure: The plates were shaken for 4 h at room temperature in an Eppendorf Thermomixer. After incubation, the plates were centrifuged for 20 minutes at 4680 rpm. From the supernatant, 150 uL was transferred to a new 96 well plate and 50 uL DMSO was added to ensure continued dissolution. Samples were measured on LC-UV at injection volumes of 1 and 8 uL. Peak areas were determined and compared to peak areas obtained using calibration curves of the test compounds in DMSO.

[6] = eLogD (lipophilicity; pH 7.4); assay type: physicochemical
Procedure: Test compounds were dissolved in DMSO at a concentration of 10 mM and further diluted with methanol: water 1:1. Samples were analyzed using gradient HPLC with three different isocratic mobile phases of 0.25% octanol in methanol (60, 65 and 70%) and 20 mM MOPS buffer (pH 7.4) with decylamine. If needed, (for low ElogDoct compounds) the isocratic mobile phases were adjusted to e.g. 40, 45 and 50% methanol. Peaks were detected using a diode array at absorbance 220-320 nm.
Capacity factors data (k′ _=(tr−_t0)/t0) obtained at various amounts of methanol were extrapolated to 0% methanol and k′w values are determined using a linear procedure. ElogDoct (7.4) is calculated using a series of reference standards with known Log D values. Each experiment was performed in triplicate.

PAMPA (pH 7.4) = assay: PAMPA (pH 7.4)
Procedure: Each stock solution was diluted to 50 uM in pH 7.4 Prisma HT buffer (pION) and 200 ul was added to each well of the donor plate in triplicate. The polyvinylidene fluoride (PVDF, 0.45 μm) filter membrane on the acceptor plate was coated with 5 ul gastrointestinal tract lipid formulation (GIT-0, pION) and to each well of the acceptor plate, 200 μl of acceptor sink buffer (pION) was added. The acceptor filter plate was then carefully placed on top of the donor plate to form a sandwich. The sandwich was incubated at 25° C. for 4 h without stirring. UV-vis spectra of the solutions in the blank, reference, acceptor and donor plates were measured using a microplate reader (Tecan Infinite 200PRO M Nano Plus). Permeability values were calculated using the PAMPA explorer software v. 3.8.0.2 (pION).

CYP450 3A4 = CYP450 3A4 (Homo sapiens, UniProt P08684); assay: CYP450 panel, 3A4; conditions: 10 μM; for 3A4*: substrate midazolam; for 3A4^: substrate testosterone
CYP450 2C19 = CYP450 2C19 (Homo sapiens, UniProt P33261); assay: CYP450 panel, 2C19; conditions: 10 μM; substrate mephenytoin
[7] = Microsome stability, CD-1 mouse; conditions: microsomes, 2 μM
[8] = Absorption & efflux: Caco-2 permeability; conditions: human
[9] = 10 mM PBS buffer, aqueous buffer, kinetic from dmso stock

Chain of CYP450 3A4 (P08684 whole entry): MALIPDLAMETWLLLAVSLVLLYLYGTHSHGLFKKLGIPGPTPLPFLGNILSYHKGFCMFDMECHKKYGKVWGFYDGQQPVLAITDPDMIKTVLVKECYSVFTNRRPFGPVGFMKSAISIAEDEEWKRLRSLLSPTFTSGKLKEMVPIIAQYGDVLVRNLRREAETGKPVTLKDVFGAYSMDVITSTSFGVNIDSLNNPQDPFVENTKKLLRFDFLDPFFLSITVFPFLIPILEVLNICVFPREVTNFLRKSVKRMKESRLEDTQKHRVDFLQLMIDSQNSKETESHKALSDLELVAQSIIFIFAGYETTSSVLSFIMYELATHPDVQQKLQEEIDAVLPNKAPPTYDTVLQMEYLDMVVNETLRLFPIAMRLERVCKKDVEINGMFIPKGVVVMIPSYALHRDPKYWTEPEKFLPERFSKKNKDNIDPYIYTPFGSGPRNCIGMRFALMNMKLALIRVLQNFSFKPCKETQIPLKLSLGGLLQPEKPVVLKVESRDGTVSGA
Chain of CYP450 2C19 (P33261 whole entry): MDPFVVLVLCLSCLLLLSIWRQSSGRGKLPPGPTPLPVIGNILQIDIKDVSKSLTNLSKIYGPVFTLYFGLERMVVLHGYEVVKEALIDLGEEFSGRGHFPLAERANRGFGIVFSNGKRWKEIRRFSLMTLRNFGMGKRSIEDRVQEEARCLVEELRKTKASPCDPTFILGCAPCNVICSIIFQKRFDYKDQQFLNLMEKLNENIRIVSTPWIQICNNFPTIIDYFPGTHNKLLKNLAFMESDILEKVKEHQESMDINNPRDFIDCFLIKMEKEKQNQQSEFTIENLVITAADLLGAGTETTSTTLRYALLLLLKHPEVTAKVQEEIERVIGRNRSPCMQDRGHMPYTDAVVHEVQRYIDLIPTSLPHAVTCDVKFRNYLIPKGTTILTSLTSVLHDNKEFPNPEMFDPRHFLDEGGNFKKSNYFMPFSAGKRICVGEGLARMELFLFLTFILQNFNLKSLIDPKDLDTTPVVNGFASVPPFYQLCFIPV

| SMILES | Human (% Reamining @1 hour) [1] | Beagle Dog (% Reamining @1 hour) [2] | Human (% Reamining @2 hour) (Plasma stability, human) | Beagle Dog (% Reamining @2 hour) [3] | CD-1 Mouse (% Reamining @2 hour) [4] | 1A2* (CYP450 1A2) | solubility kinetic at 4 h [5, 9] | eLogD (lipophilicity; pH = 7.4) [6] | Papp at 4 h, 50 uM (PAMPA (pH 7.4); PAMPA) | 3A4* (CYP450 3A4) | 3A4^ (CYP450 3A4) | 2C19* (CYP450 2C19) | CD-1 Mouse (% Reamining @1 hour) [7] | Papp B→A at 2 h, 10 μM [8] | efflux ratio at 2 h, 10 μM [8] | Papp A→B at 2 h, 10 μM ([8]; Caco-2, A-B Permeability Ranking, 10 μM, 2 hrs) | Papp A→B at 2 h, 10 μM ([8]; Caco-2, Mean Papp A-B (10^−6 cm/s), 10 μM, 2 hrs) | solubility kinetic at 4 h [5] | PAMPA (pH = 7.4; Papp 10^−6 cm/s) (PAMPA (pH 7.4)) | Papp A→B at 2 h, 10 μM [8] |
| --- | --- | --- | --- | --- | --- | --- | --- | --- | --- | --- | --- | --- | --- | --- | --- | --- | --- | --- | --- | --- |
| CNS(=O)(=O)Nc1cccc(Cc2c(CN(C)C)c3ccc(OC(=O)N(C)C)cc3oc2=O)c1F [Compound 9] | 51.7% | 76.5% | 95.1% | 96.8% | 90.6% | 4.8 | > 80 µM | 3.0 | 37 ×10⁻⁶ cm/s | 16.3 | 26.8 | 8.2 | 54.3% | 21 ×10⁻⁶ cm/s | 1.62 | > 1 ×10⁻⁶ cm/s | 13 ×10⁻⁶ cm/s | – | – | – |
| Cn1cnc2c(F)c(Nc3ccc(Br)cc3Cl)c(C(=O)NOCCO)cc21 [Reference 1, Selumetinib, reference compound] | 75.8% | 97.5% | 98.1% | 100.4% | 104.8% | 8.3 | – | 3.6 | – | 25.9 | 21.4 | 13.9 | 13.9% | – | – | – | – | 36 µM (≈ 16.5 µg/mL) | 29 10^−6 cm/s | > 1 ×10⁻⁶ cm/s |
| CNS(=O)(=O)Nc1nccc(Cc2c(C)c3ccc(Oc4ncccn4)cc3oc2=O)c1F [Reference 2, reference compound] | 107.1% | 111.6% | 91.1% | 99.8% | 92.9% | 0.8 | 36 µM (≈ 17 µg/mL) | 3.6 | – | 16.6 | 15.7 | −0.9 | 96.0% | – | – | – | – | – | 29 10^−6 cm/s | > 1 ×10⁻⁶ cm/s |
